What was measured:
Type in all cases: functional
DU-145 = assay: Cytotoxicity against Homo sapiens (human) DU145 cells assessed as cell viability at 10 uM after 72 hr by MTT assay; conditions: DU-145, 72 h, read-out: Activity
A549 = assay: Cytotoxicity against Homo sapiens (human) A549 cells assessed as cell viability at 10 uM after 72 hr by MTT assay; conditions: A549, 72 h, read-out: Activity
HeLa = assay: Cytotoxicity against Homo sapiens (human) HeLa cells assessed as cell viability at 10 uM after 72 hr by MTT assay; conditions: read-out: Activity

Compound `Clc1cccc(-n2cc(Cn3c4ccccc4c4nc5ccccc5nc43)nn2)c1` has a viability at 10 µM (DU-145) of 77.5%, a viability at 10 µM (A549) of 104% and a viability at 10 µM (HeLa) of 77.5%.
Work on `Fc1ccc(-n2cc(Cn3c4ccccc4c4nc5ccccc5nc43)nn2)cc1` yielded a viability at 10 µM (DU-145) of 83.2%, a viability at 10 µM (A549) of 94.7% and a viability at 10 µM (HeLa) of 77.4%.
For `FC(F)(F)c1cccc(-n2cc(Cn3c4ccccc4c4nc5ccccc5nc43)nn2)c1`, the viability at 10 µM (DU-145) was 76.5%, the viability at 10 µM (A549) was 83.4% and the viability at 10 µM (HeLa) was 76.9%.
For `Brc1ccccc1-n1cc(Cn2c3ccccc3c3nc4ccccc4nc32)nn1`, the viability at 10 µM (DU-145) was 85.4%, the viability at 10 µM (A549) was 85.5% and the viability at 10 µM (HeLa) was 75.6%.
With `Fc1ccc(-n2cc(Cn3c4ccccc4c4nc5ccccc5nc43)nn2)c(F)c1` the viability at 10 µM (DU-145) was 77.4%, the viability at 10 µM (A549) was 94.7% and the viability at 10 µM (HeLa) was 80.7%.
`Fc1cc(-n2cc(Cn3c4ccccc4c4nc5ccccc5nc43)nn2)ccc1Cl` showed a viability at 10 µM (DU-145) of 76.1%, a viability at 10 µM (A549) of 83.5% and a viability at 10 µM (HeLa) of 93.6%.
Work on `Fc1ccc(COc2cccc(-n3cc(Cn4c5ccccc5c5nc6ccccc6nc54)nn3)c2)cc1` yielded a viability at 10 µM (DU-145) of 77.6%, a viability at 10 µM (A549) of 98.3% and a viability at 10 µM (HeLa) of 81.5%.
`Fc1ccc2c(c1)c1nc3ccccc3nc1n2Cc1cn(-c2ccccc2)nn1` showed a viability at 10 µM (DU-145) of 72.6%, a viability at 10 µM (A549) of 97.8% and a viability at 10 µM (HeLa) of 92%.
Work on `Fc1ccc2c(c1)c1nc3ccccc3nc1n2Cc1cn(-c2cccc(Cl)c2)nn1` yielded a viability at 10 µM (DU-145) of 73.2%, a viability at 10 µM (A549) of 91.9% and a viability at 10 µM (HeLa) of 77.7%.
In the case of `Fc1ccc(-n2cc(Cn3c4ccc(F)cc4c4nc5ccccc5nc43)nn2)cc1`, the viability at 10 µM (DU-145) is reported as 85%, the viability at 10 µM (A549) is reported as 97.1% and the viability at 10 µM (HeLa) is reported as 91.9%.
Compound `Fc1ccc2c(c1)c1nc3ccccc3nc1n2Cc1cn(-c2cccc(C(F)(F)F)c2)nn1` has a viability at 10 µM (DU-145) of 77.5%, a viability at 10 µM (A549) of 93.7% and a viability at 10 µM (HeLa) of 86.4%.
Work on `Fc1ccc2c(c1)c1nc3ccccc3nc1n2Cc1cn(-c2ccccc2Br)nn1` yielded a viability at 10 µM (DU-145) of 90.1%, a viability at 10 µM (A549) of 94.7% and a viability at 10 µM (HeLa) of 89.4%.
In the case of `Fc1ccc(-n2cc(Cn3c4ccc(F)cc4c4nc5ccccc5nc43)nn2)c(F)c1`, the viability at 10 µM (DU-145) is reported as 77.3%, the viability at 10 µM (A549) is reported as 87.9% and the viability at 10 µM (HeLa) is reported as 86.8%.
In the case of `COc1cccc2c1C(=O)c1c(O)c3c(c(O)c1C2=O)C[C@@](O)(C(=O)CO)C[C@@H]3O[C@H]1C[C@H](N)[C@H](O)[C@H](C)O1` [DOXORUBICIN], the viability at 10 µM (DU-145) is reported as 9%, the viability at 10 µM (A549) is reported as 6.33% and the viability at 10 µM (HeLa) is reported as 12%.

From ChEMBL document CHEMBL3046073, “Synthesis and cytotoxicity of novel 6H-indolo[2,3-b]quinoxaline derivatives” (2013)
